Converted amounts (≈) assume the structure as drawn.
Experiments:
[1] = system: N. gonorrhoeae ATCC 49226; test: MIC on GC agar plates; format: cell-based, Neisseria gonorrhoeae; conditions: Neisseria gonorrhoeae, ATCC49226, read-out: MIC
Protocol: An initial screening for bacterial inhibition was performed by the agar diffusion method. […] DMSO and TSB were included as negative controls. Gentamicin and trimethoprim sulfamethoxazole were included as a positive control for growth inhibition. Derivatives showing growth inhibition were tested at least twice before being selected for the microdilution test. For N. gonorrhoeae, the agar diffusion method was also used for screening with some modifications. […] Penicillin and tetracycline were used as controls. […] Briefly, GC agar supplemented with 1% isovitalex was prepared with increasing concentrations of the new compounds and inoculated with 10 µL of a bacterial suspension (1 × 10^4 CFU). The lowest concentration of the compound that inhibited bacterial growth was determined as the MIC. Bacterial growth was examined and verified using the oxidase test. The experiments were performed in duplicate in at least two independent assays.

[2] = Hemolytic activity, spectrophotometric; format: cell-based, human; conditions: human, human red blood cells (huRBC), 5% hematocrit, 200 μg/mL, 37 °C
60 cancer cell lines = test: NCI-60 one-dose screen (10 μM); format: cell-based; conditions: Homo sapiens; one dose of 10 μM, mean over 60 cancer cell lines; read-out: Mean Growth Percent (MGP)
Source text: Additionally, the mean of the growth percentages (MGP) of each compound against all the 60 cancer cell lines is also reported, which is used as one of the selection criteria to continue with tests at five concentration doses.

[3] = system: M. tuberculosis ATCC 27294; test: Antitubercular broth microdilution MIC; format: cell-based; conditions: Mycobacterium tuberculosis; M. tuberculosis ATCC 27294 (H37Rv); read-out: Minimum inhibitory concentration (MIC)
[4] = system: Candida albicans (ATCC 10231); test: Antifungal broth microdilution (CLSI); format: cell-based; conditions: ATCC10231; Ca: Candida albicans
Protocol: Several of the obtained triazine derivatives were evaluated against sensitive fungal species comprising of two yeasts (Candida albicans (ATCC 10231), Cryptococcus neoformans (ATCC 32264)), three dermatophytes (Microsporum gypseum (CCC 115), Trichophyton rubrum (CCC 134-2000), Trichophyton mentagrophytes (CCC 202-2000)), and three Aspergillus fungi ((A. [NT] 26934), A. niger (ATCC 9029), and A. flavus (ATCC 9170)). […] Broth microdilution techniques were performed in 96-well microplates according to the Reference Method for Broth Dilution Antifungal Susceptibility Testing of Yeasts, document M27-A3 [86] and of Filamentous Fungi […]-A8 [87]. […] An inoculum suspension (100 μL) was added to each well (final well volume = 200 μL). One growth control well (containing medium, inoculum, and the same amount of DMSO as used for each compound) and one sterility control well (sample, medium, and sterile water instead of inoculum) were included for each fungus tested. Microtiter plates were incubated in a dark, humid chamber at 30 °C for the time necessary for each fungus. Amphotericin B, Terbinafine, Fluconazole and Itraconazole were used as a positive control. The tests were performed in triplicate.

| Structure (SMILES) | MIC [1] | hemolysis at 24 h, 200 µg/mL [2] | activity at 10 µM (60 cancer cell lines) | MIC [3] | MIC [4] |
| --- | --- | --- | --- | --- | --- |
| COc1cc(C2CC(c3ccccc3)=Nc3c(N)nc(N)nc3N2)ccc1Oc1nc(NCCO)nc(N2CCOCC2)n1 (centres unmarked) [28a] | 4 µg/mL (≈ 6.67 µM) | 3% | 98.8% | – | – |
| COc1cc(/C=C/C(=O)c2ccc(F)cc2)ccc1Oc1nc(Nc2ccc(F)cc2)nc(N(C)C)n1 [21f] | 500 µg/mL (≈ 993 µM) | 0.8% | 56% | – | – |
| CN(C)c1nc(NCCNS(=O)(=O)c2ccc(C3=Nc4c(N)nc(N)nc4NC(c4ccc(Cl)cc4)C3)cc2)nc(N2CCOCC2)n1 (centres unmarked) [30e] | – | 2.7% | 48.9% | – | – |
| Nc1nc(N)c2c(n1)NC(c1ccc(C(F)(F)F)cc1)CC(c1ccc(Nc3nc(NCCO)nc(N4CCOCC4)n3)cc1)=N2 (centres unmarked) [32g] | 4 µg/mL (≈ 6.28 µM) | 2% | 64.8% | – | – |
| Cc1ccc(C2CC(c3ccc(Nc4nc(NCCO)nc(N5CCOCC5)n4)cc3)=Nc3c(N)nc(N)nc3N2)cc1 (centres unmarked) [32b] | 4 µg/mL (≈ 6.86 µM) | 1% | 84.5% | – | – |
| COc1cc(C=O)ccc1Oc1nc(Nc2ccc(F)cc2)nc(N(C)C)n1 [compound 15] | ≥ 500 µg/mL | – | 64.5% | – | – |
| Cc1ccc(C2CC(c3ccc(S(=O)(=O)NCCNc4nc(N(C)C)nc(N5CCOCC5)n4)cc3)=Nc3c(N)nc(N)nc3N2)cc1 (centres unmarked) [30b] | – | 0.2% | 49.9% | – | – |
| COc1cc(/C=C/C(=O)c2ccc(C(F)(F)F)cc2)ccc1Oc1nc(NCCO)nc(N2CCOCC2)n1 [20g] | – | – | 77.7% | – | – |
| NNC(=O)c1ccncc1 [Isoniazid, reference compound] | – | – | – | 0.1 µg/mL (≈ 0.729 µM) | – |
| COc1cc(C2CC(c3ccc(Nc4nc(NCCO)nc(Nc5ccc(Cl)cc5)n4)cc3)=Nc3c(N)nc(N)nc3N2)cc(OC)c1OC (centres unmarked) [33d] | – | – | 65.3% | – | – |
| COc1cc(C2CC(c3cc(OC)c(OC)c(OC)c3)=Nc3c(N)nc(N)nc3N2)ccc1Oc1nc(NCCO)nc(N2CCOCC2)n1 (centres unmarked) [28d] | 2 µg/mL (≈ 2.9 µM) | 1% | 98.9% | – | – |
| COc1cc(/C=C/C(=O)c2ccc(C(F)(F)F)cc2)ccc1Oc1nc(Nc2ccc(F)cc2)nc(N(C)C)n1 [21g] | – | – | 73.2% | – | – |
| COc1ccc(C(=O)/C=C/c2ccc(Oc3nc(NCCO)nc(N4CCOCC4)n3)c(OC)c2)cc1 [20c] | – | – | 72% | – | – |
| CCC(C)n1ncn(-c2ccc(N3CCN(c4ccc(OCC5COC(Cn6cncn6)(c6ccc(Cl)cc6Cl)O5)cc4)CC3)cc2)c1=O (centres unmarked) [Itraconazole, reference compound] | – | – | – | – | 0.5 µg/mL (≈ 0.709 µM) |
| COc1ccc(C2CC(c3ccc(S(=O)(=O)NCCNc4nc(Nc5ccc(F)cc5)nc(N(C)C)n4)cc3)=Nc3c(N)nc(N)nc3N2)cc1 (centres unmarked) [31c] | 8 µg/mL (≈ 11.2 µM) | 1.2% | 75.8% | 1.2 µg/mL (≈ 1.68 µM) | – |
| COc1cc(/C=C/C(=O)c2ccc(Cl)cc2)ccc1Oc1nc(Nc2ccc(F)cc2)nc(N(C)C)n1 [21e] | – | – | 73.1% | – | – |
| COc1cc(/C=C/C(=O)c2ccc(Cl)cc2)ccc1Oc1nc(NCCO)nc(N2CCOCC2)n1 [20e] | – | – | 94.7% | – | – |
| COc1ccc(C(=O)/C=C/c2ccc(Oc3nc(Nc4ccc(F)cc4)nc(N(C)C)n3)c(OC)c2)cc1 [21c] | – | – | 48.4% | – | – |
| Nc1nc(N)c2c(n1)NC(c1ccccc1)CC(c1ccc(Nc3nc(NCCO)nc(N4CCOCC4)n3)cc1)=N2 (centres unmarked) [32a] | 8 µg/mL (≈ 14.1 µM) | 2% | 87.2% | – | – |
| COc1cc(C2CC(c3ccc(S(=O)(=O)NCCNc4nc(Nc5ccc(F)cc5)nc(N(C)C)n4)cc3)=Nc3c(N)nc(N)nc3N2)cc(OC)c1OC (centres unmarked) [31d] | 500 µg/mL (≈ 646 µM) | 0.6% | 79.6% | 5 µg/mL (≈ 6.46 µM) | – |

| Structure (SMILES) | MIC [1] | hemolysis at 24 h, 200 µg/mL [2] | activity at 10 µM (60 cancer cell lines) | MIC [3] | MIC [4] |
| --- | --- | --- | --- | --- | --- |
| COc1ccc(C2=Nc3c(N)nc(N)nc3NC(c3ccc(Oc4nc(NCCO)nc(N5CCOCC5)n4)c(OC)c3)C2)cc1 (centres unmarked) [28c] | 0.5 µg/mL (≈ 0.794 µM) | 7% | 102% | – | – |
| COc1ccc(/C=C/C(=O)c2ccc(S(=O)(=O)NCCNc3nc(N(C)C)nc(N4CCOCC4)n3)cc2)cc1 [23c] | – | 0% | 81.5% | – | – |
| COc1cc(C2CC(c3ccc(F)cc3)=Nc3c(N)nc(N)nc3N2)ccc1Oc1nc(NCCO)nc(N2CCOCC2)n1 (centres unmarked) [28f] | 8 µg/mL (≈ 13 µM) | 2% | 98.2% | – | – |
| COc1cc(C2CC(c3ccc(C)cc3)=Nc3c(N)nc(N)nc3N2)ccc1Oc1nc(NCCO)nc(N2CCOCC2)n1 (centres unmarked) [28b] | 4 µg/mL (≈ 6.52 µM) | 5% | 89.7% | – | – |
| CN(C)c1nc(NCCNS(=O)(=O)c2ccc(C3=Nc4c(N)nc(N)nc4NC(c4ccc(F)cc4)C3)cc2)nc(N2CCOCC2)n1 (centres unmarked) [30f] | – | – | 72.8% | – | – |
| COc1cc(C2CC(c3ccc(Cl)cc3)=Nc3c(N)nc(N)nc3N2)ccc1Oc1nc(NCCO)nc(N2CCOCC2)n1 (centres unmarked) [28e] | 8 µg/mL (≈ 12.6 µM) | 5% | 70.2% | – | – |
| COc1ccc(C2CC(c3ccc(Nc4nc(NCCO)nc(Nc5ccc(Cl)cc5)n4)cc3)=Nc3c(N)nc(N)nc3N2)cc1 (centres unmarked) [33c] | 2 µg/mL (≈ 3.13 µM) | 5% | 63.3% | – | – |
| Nc1nc(N)c2c(n1)NC(c1ccc(Cl)cc1)CC(c1ccc(Nc3nc(NCCO)nc(N4CCOCC4)n3)cc1)=N2 (centres unmarked) [32e] | 1000 µg/mL (≈ 1660 µM) | – | 74% | – | – |
| COc1cc(/C=C/C(=O)c2ccccc2)ccc1Oc1nc(NCCO)nc(N2CCOCC2)n1 [20a] | – | – | 92.1% | – | – |
| COc1ccc(C2CC(c3ccc(Nc4nc(NCCO)nc(N5CCOCC5)n4)cc3)=Nc3c(N)nc(N)nc3N2)cc1 (centres unmarked) [32c] | – | – | 101% | – | – |
| COc1cc(C2CC(c3ccccc3)=Nc3c(N)nc(N)nc3N2)ccc1Oc1nc(Nc2ccc(F)cc2)nc(N(C)C)n1 (centres unmarked) [29a] | 2 µg/mL (≈ 3.29 µM) | 3% | 40.2% | 5 µg/mL (≈ 8.23 µM) | – |
| COc1cc(C2CC(c3ccc(Nc4nc(NCCO)nc(N5CCOCC5)n4)cc3)=Nc3c(N)nc(N)nc3N2)cc(OC)c1OC (centres unmarked) [32d] | 500 µg/mL (≈ 759 µM) | – | 99.5% | – | – |
| CC(=O)c1ccc(S(=O)(=O)NCCNc2nc(Nc3ccc(F)cc3)nc(N(C)C)n2)cc1 [compound 18] | – | – | 104% | – | – |
| Cc1ccc(/C=C/C(=O)c2ccc(S(=O)(=O)NCCNc3nc(N(C)C)nc(N4CCOCC4)n3)cc2)cc1 [23b] | – | 1.8% | 72.3% | – | – |
| Nc1nc(N)c2c(n1)NC(c1ccc(F)cc1)CC(c1ccc(Nc3nc(NCCO)nc(N4CCOCC4)n3)cc1)=N2 (centres unmarked) [32f] | 2 µg/mL (≈ 3.41 µM) | 5% | 89.1% | – | – |
| CN(C)c1nc(NCCNS(=O)(=O)c2ccc(C3=Nc4c(N)nc(N)nc4NC(c4ccccc4)C3)cc2)nc(N2CCOCC2)n1 (centres unmarked) [30a] | – | 0.6% | 85.4% | – | – |
| COc1cc(C2CC(c3ccc(C)cc3)=Nc3c(N)nc(N)nc3N2)ccc1Oc1nc(Nc2ccc(F)cc2)nc(N(C)C)n1 (centres unmarked) [29b] | ≥ 500 µg/mL | – | 51.3% | 0.6 µg/mL (≈ 0.965 µM) | – |
| COc1cc(C=O)ccc1Oc1nc(NCCO)nc(N2CCOCC2)n1 [compound 14] | – | – | 102% | – | – |
| COc1cc(/C=C/C(=O)c2ccc(F)cc2)ccc1Oc1nc(NCCO)nc(N2CCOCC2)n1 [20f] | – | – | 72.4% | – | – |
| COc1ccc(C2CC(c3ccc(S(=O)(=O)NCCNc4nc(N(C)C)nc(N5CCOCC5)n4)cc3)=Nc3c(N)nc(N)nc3N2)cc1 (centres unmarked) [30c] | – | – | 84.3% | – | – |
